{"source": "patent US11872263B2", "about": "“AIMP1 protein fragment and hair growth-promoting composition containing same as active ingredient” (CUREBIO THERAPEUTICS, priority 2016, dated 2024)", "key": {"[1]": {"tested_on": "dorsal hair of depilated C57BL6 mice", "experiment": "In vivo hair regrowth after depilation of dorsal skin of mice", "design": "species or system mouse", "conditions": "13 days after depilation, 100 nM polypeptide, 80 μl topical once a day", "procedure": "(§1) The hair of the dorsal skin of mice (7 weeks old male C57BL6, purchased from Orient Bio Inc.) was cut out with a clipper, and hair removal cream (Niclean, Ildong Pharmaceutical) was applied. The depilated area was about 2×2.5 cm. Mice were treated with 20% glycerol/PBS (control group), 3% Minoxidil (MNX, 140 mM), FGF7 (100 nM) or Neo-Pep of the present invention (polypeptide of SEQ ID NO: 1, 100 nM), respectively, once a day in 80 μl using brush, for 13 days (n=6 per group).\nas §1, with “Specifically, the hair” for “The hair”, “of a mouse” for “of mice”, “group). For comparative observation, the dorsal skin of the mouse was photographed before and after the beginning of the test.” for “group).”"}, "[2]": {"tested_on": "CD34+ hair follicle stem cells", "experiment": "In vitro hair growth assay / BrdU proliferation assay with CD34+ hair follicle stem cells", "format": "cell-based, mouse", "procedure": "The hair of the dorsal skin of 7 weeks old male C57BL6 mice (purchased from Orient Bio Inc.) were cut with a clipper and skin tissue samples of the depilated dorsal region of the mice were collected. The collected skin tissue samples were immersed in medium using collagenase, DNase I, and hyaluronidase, and cells were isolated using Gentle MACSTM Dissociator (Miltenyi Biotec). After the cells were separated, the separated cells were incubated with a mouse CD34-Biotin antibody (Miltenyi Biotec). Cells and antibody solutions were incubated with streptavidin microbeads (Miltenyi Biotec) and then separated using LS column (Miltenyi Biotec). The separated cells were cultured in DMEM medium containing 10% FBS, 1% penicillin/streptomycin solution in humidified air of 95% 02 and 5% CO2 at 37° C.\nCell proliferation can be confirmed using the BrdU cell proliferation assay kit (Cell Signaling). Proliferation assays were performed using protocols presented by […]. Briefly, the cells were incubated with BrdU for 2 h. The primary BrdU detection antibody was incubated for 1 hour and the secondary anti-mouse IgG, HRP-conjugate antibody was incubated for 30 minutes.\nA hair growth in vitro assay was performed using the Cyquant Assay (Thermo Fisher). […]"}, "[3]": {"tested_on": "β-catenin target genes AXIN, CD44 and TCF7", "experiment": "qRT-PCR of β-catenin target genes in CD34+ cells", "format": "cell-based, mouse", "conditions": "100 nM, CD34+ cells cultured 8 hours", "procedure": "In order to confirm the induction of CD34+ hair follicle stem cell proliferation through β-catenin pathway, mRNA expression levels of β-catenin target genes AXIN, CD44 and TCF7 were confirmed by the following method. Specifically, each test substance was treated and CD34+ cells were cultured for 8 hours. Then, the cultured cells were collected, RNA was isolated using GeneJET RNA purification kit (Thermo Fisher, K0731), and cDNA was synthesized with the Maxima first strand cDNA synthesis kit (Thermo Fisher, K1642). qRT-PCR was performed using each of the gene-specific primers (TCF7: 5′-[…]-3′ (SEQ ID NO: 36) and 5′-[…]-3′ (SEQ ID NO: 37), AXIN2: 5′-CTCCTTGGAGGCAAGAGC-3′ (SEQ ID NO: 38) and 5′-GGCCACGCAGCACCGCTG-3′ (SEQ ID NO: 39), CD44: 5′-[…]-3′ (SEQ ID NO: 40) and 5′-GGAGTCTTCGCTTGGGGTA-3′ (SEQ ID NO: 41)), Maxima SYBR green/ROX qPCR master mix (Thermo Fisher, K0222) and 7500 Real-time PCR system (Applied Biosystems, 2720; condition: 40 cycles, 2 step (95° C. for 15 sec, and 54° C. for 60 sec). The expression level of each gene was calculated by the ΔΔCT method."}, "[4]": {"tested_on": "hair follicles in skin tissue of C3H/HeJ mice", "experiment": "H&E histology of skin tissue of C3H/HeJ alopecia areata mice", "format": "in vivo, mouse", "conditions": "100 nM topical", "from_the_text": "Meanwhile, in the images of the skin tissue of the mouse in FIG. 7, the skin tissue at the alopecia area and the area without alopecia around it was collected, fixed in Fekete's acid alcohol formalin and analyzed for H&E staining.\nThese are main characteristics used for diagnosing alopecia areata. And follicular dystrophy is a phenomenon that occurs frequently in alopecia areata, which means that hair follicles are twisted and deformed or have weak or disrupted hair shaft."}, "[5]": {"tested_on": "hair follicle region of skin tissue", "experiment": "Histological analysis (IHC for BrdU, β-catenin, Cytokeratin 15) of skin at Day 6 after depilation", "format": "in vivo, mouse", "conditions": "100 nM", "procedure": "A skin sample of 7 weeks old male C57BL6 mice (purchased from Orient Bio Inc.) was collected and placed in a paraffin block. IHC (Immunohistochemistry) was performed using Cytokeratin 15 antibody (Abcam), BrdU antibody (Novusbio), and β-catenin antibody.\nFor reference, β-catenin is a hair follicle signaling marker, Cytokeratin 15 is a hair follicle stem cell marker, and BrdU is a cell proliferation marker.\nβ-catenin is a very important protein for hair growth and a very important factor in follicular stem cell proliferation playing a role as a signaling marker for hair follicle cells. In addition, Cytokeratin 15 acts as a biomarker of hair follicle stem cells, and BrdU is known to be a factor that plays a role as a cell growth marker."}, "[6]": {"tested_on": "hair follicles of anagen phase in dorsal skin", "experiment": "H&E staining of dorsal skin sections: anagen hair follicle count and dermis thickness", "format": "in vivo, mouse", "conditions": "H&E stained dorsal skin sections, Day 13 after depilation, 100 nM", "procedure": "Skin samples of 7 weeks old male C57BL6 mice (purchased from Orient Bio Inc.) were collected and placed in a cryomold using an OCT compound (Tissue-Tek) and stored at −80° C. in a freezer. After tissue sections were prepared with Microm HM 525 (Thermo Scientific), the tissue sections prepared in the slide glass were fixed with 4% paraformaldehyde for 10 minutes, washed twice with PBS for 5 minutes, and then stained with 50 μl of hematoxylin solution (Sigma Aldrich) for 6 minutes and washed with water and PBS for 5 minutes. Then, stained with eosin (Sigma Aldrich), briefly washed with water and washed with PBS for 5 min, then briefly twice with 95% ethanol and 100% ethanol, respectively. After treatment with xylene (Duksan) twice for 2 min, the stained tissue sections were covered with cover slides and fixed.\nIn addition, dorsal skin samples of the mice were collected and placed in a cryomold using an OCT compound (Tissue-Tek) and stored at −80° C. in a freezer. […] The number of hair follicles of anagen phase (growth phase) was counted and compared quantitatively in dorsal skin sections of each group stained with hematoxylin and eosin (H & E)."}, "[7]": {"tested_on": "C3H/HeJ mice having alopecia universalis", "experiment": "Hair growth in C3H/HeJ mice with skin graft-induced alopecia areata", "format": "in vivo, mouse", "conditions": "100 μl of 100 nM topical once daily for 14 weeks", "from_the_text": "In order to confirm the effect of the polypeptide of the present invention on the human hair growth cycle, C3H/HeJ mouse (Jackson Laboratory, USA) was used as an animal model reflecting the pathological state of human alopecia areata. The advantage of using the C3H/HeJ mouse is that when full thickness skin graft is applied to an aged mouse having alopecia areata from young age, patchy alopecia develops within 8 to 10 weeks, and after 20 weeks, alopecia extends to the whole body skin and result in a chronic state of alopecia universalis.\nIn this test, C3H/HeJ female mice having alopecia universalis that was induced 25 weeks after skin transplantation as described above were used. Without any pretreatment such as shaving or depilation, control group (Control-treated mice, 100 μl of 20% glycerol/PBS) and Neo-Pep polypeptide treated group (Peptide-treated mice, 100 μl of 100 nM Neo-Pep polypeptide (SEQ ID NO: 1) in 20% glycerol/PBS) were treated with each test material topically around the alopecia region using brush, once daily, for 14 weeks. Control group and Neo-Pep treated group consisted of 4 mice, respectively.\nPhotographs were taken every 2 weeks from the beginning of the experiment."}}, "data": [{"sequence": "AVLKRLEQKGAEADQIIEYLKQQVSLLKEKAILQATLREEK (Homo sapiens Neo-Pep polypeptide; AIMP1-(6-46))", "values": [{"measurement": "dorsal hair growth compared with control group", "setting": "[1]", "result": "grew much more"}, {"measurement": "proliferation of CD34+ hair follicle stem cells", "setting": "[2]; 1 nM, 10 nM, 100 nM and 1000 nM", "result": "induced proliferation of CD34+ hair follicle stem cells in a dose-dependent manner"}, {"measurement": "inducing proliferation of CD34+ hair follicle stem cells (relative cell number)", "setting": "[2]; each peptide 100 nM, 24 hours", "result": "induced proliferation"}, {"measurement": "mRNA expression level of AXIN, CD44 and TCF7 compared to the control group", "setting": "[3]", "result": 5, "unit": "fold"}, {"measurement": "development of inflammation and deformed hair shaft compared to the control group", "setting": "[4]", "result": "significantly lower"}, {"measurement": "start of anagen phase compared with control (BrdU, β-catenin, Cytokeratin 15)", "setting": "[5]", "result": "starts earlier"}, {"measurement": "dermis thickness compared with control", "setting": "[6]", "result": "much thicker"}, {"measurement": "number of hair follicles of anagen phase compared with control", "setting": "[6]", "result": "more than twice as much"}, {"measurement": "time at which hair began to grow again", "setting": "[7]", "result": 11, "unit": "weeks"}, {"measurement": "mice with mild to moderate hair growth", "setting": "[7]; 4 mice per group", "result": "3 out of 4"}]}]}
